# In paper PMC8387043, “Host Poly(A) Polymerases PAPD5 and PAPD7 Provide Two Layers of Protection That Ensure the Integrity and Stability of Hepatitis B Virus RNA” (Journal of Virology, 2021):
# Where two headings read alike, the source gives them in different places.
# Columns and labels:
# [1] = system: HBV; experiment: Multiple in vitro HBV replication models (summary statements); type: cell-based; details: Hepatitis B virus
# Protocol: (§1) AB-452 and RG7834 both belong to the dihydroquinolizinones chemical class. The antiviral activities of AB-452 and its diastereomer ARB-169451 were evaluated using multiple in vitro HBV replication models, including HepG2.2.15 cells (which constitutively express HBV through the integrated viral genome), PLC/PRF/5 cells (a patient-derived hepatocellular carcinoma cell line only expressing HBsAg), and HBV-infected HepG2-NTCP cells or primary human hepatocytes (PHHs) in which viral replication was dependent on cccDNA transcription (Table 1).
# [2] = system: HBV RNA poly(A) tails; experiment: HBV sRNA poly(A) tail NGS in HepG2-NTCP WT and KO clones
# [3] = system: HSV-1/HSV-2; experiment: Antiviral selectivity panel, CPE in Vero cells; type: cell-based, herpes simplex virus
# Protocol: (§2) HepG2.2.15 (30,000 cells/well) were plated in 96-well collagen-treated plates and incubated at 37°C. Compounds were half-log serially diluted and added in duplicate to 96-well microtiter plates. The plates were incubated for a total duration of 6 days, after which the culture medium was removed for the HBsAg and HBeAg CLIA assays (AutoBio Diagnostics Co., China) performed according to the manufacturer’s instructions. Secreted HBV DNA was extracted (Realtime Ready cell lysis kit; Roche, Mannheim, Germany) and quantified in a qPCR assay (LightCycler 480 SYBR green I master mix; Roche) with the 5′-[…]-3′ (sense) and 5′-[…]-3′ (antisense) primers using the PCR conditions of denaturing at 95°C for 5 min followed by 40 cycles of amplification at 95°C for 15 s and 60°C for 30 s. Antiviral selectivity studies against a panel of different DNA and RNA viruses were performed at ImQuest BioSicences (Frederick, MD, USA). Briefly, test compounds were evaluated using 6 doses, including the highest concentration of 30 μM and five serial half-logarithmic dilutions in triplicate for the antiviral assays.
# [4] = system: panel of 10 different RNA and DNA viruses; experiment: Antiviral selectivity panel (summary statement); type: cell-based; details: read-out: EC50 against a panel of 10 different RNA and DNA viruses
# Protocol: as §2
# [5] = Cytotoxicity; type: cell-based
# From the text: (§3) TABLE 3 Cytotoxicity of AB-452 against cells derived from various tissues | column: AB-452 CC50 (μM)
# [6] = system: Influenza; experiment: organism not typed; type: cell-based; details: MDBK, CPE
# [7] = system: HBV RNA poly(A) tails; experiment: HBV poly(A) tail length and composition (NGS) in HepAD38 cells; type: cell-based, hepatitis B virus; details: HepAD38, 70 nM
# Protocol: RNA metabolism in most eukaryotic mRNAs employs the 3′ deadenylation pathway in which poly(A) tail shortening is often observed prior to mRNA degradation ([38][–][40]). We therefore determined the HBV poly(A) tail length and composition from HepAD38 cells in the presence or absence of AB-452. To amplify the HBV poly(A) tail, G/I (guanosine and inosine nucleotides) tailing was added to the 3′ ends of mRNA transcripts, and the newly added G/I tails were used as the priming sites to synthesize the cDNA that would be used for amplification of HBV poly(A) tails. The lengths and compositions of the amplicons containing the HBV RNA poly(A) tails were analyzed by next-generation sequencing (PacBio Sequel sequencing platform). […] The poly(A) tails amplified from β-actin cDNAs served as the negative control, which was not affected by the treatment (Fig. 3D).
# ACTB GSP primers include 5′-[…] -3′ (sense) and 5′-[…] -3′(antisense). Amplified products were used as loading control. […] Accuracy cutoff default was 0.9.
# [8] = system: HBV; experiment: HBsAg inhibition in PLC/PRF/5 cells; type: cell-based; details: Hepatitis B virus
# Protocol: as §1
# HepG2.2.15, HepAD38, and PLC/PRF/5 cells were cultured in Dulbecco’s modified Eagle medium (DMEM)/F12 medium (Corning, NY, USA), supplemented with 10% fetal bovine serum (Gemini, CA, USA), 100 U/ml penicillin, and 100 μg/ml streptomycin. Huh-7 cells (Creative Bioarray, NY, USA) were cultured in RPMI 1640 medium (Basel, Switzerland) containing 10% fetal bovine serum, 100 U/ml penicillin, and 100 μg/ml streptomycin. HepG2-hNTCP-C4 cells were cultured in DMEM medium (Gibco, MA, USA) containing 10% fetal bovine serum and 10 mM HEPES (Gibco).
# [9] = system: HBV; experiment: Antiviral assay in HepG2.2.15 cells (HBsAg/HBeAg CLIA, secreted HBV DNA qPCR); type: cell-based, hepatitis B virus; details: Hepatitis B virus
# [10] = system: HBV; experiment: Antiviral activity in HBV-infected HepG2-NTCP WT and KO clones; type: cell-based, hepatitis B virus; details: for EC50: Hepatitis B virus, read-out: HBV infection EC50
# [11] = system: HBsAg; experiment: HBsAg inhibition in adenovirus-HBsAg-transduced HepG2-NTCP WT and KO clones; type: cell-based, hepatitis B virus; details: for EC50: Hepatitis B virus
# [12] = system: HIV; experiment: Antiviral selectivity panel, CPE in CEM-SS cells; type: cell-based; details: Human immunodeficiency virus 1
# [13] = in vitro; type: cell-based; details: human
# From the text: as §3
# [14] = system: RSV; experiment: Antiviral selectivity panel, CPE in HEp2 cells; type: cell-based; details: human respiratory syncytial virus, HEp-2
structure (smiles),measurement,setting,value
COCCCOc1cc2c(nc1OC)-c1cc(=O)c(C(=O)O)cn1[C@H](C(C)C)C2 [AB-452],EC50,"[1]; HepG2.2.15, PLC/PRF/5, HepG2-NTCP, PHH, read-out: HBsAg, HBeAg and HBV DNA EC50 (range over models)",0.28 to 6.8 nM
same,EC50,"[1]; abstract, read-out: HBsAg EC50 in vitro (range over models)",1.4 to 6.8 nM
same,poly(A) tail length after treatment,"[2]; WT and P7_KO cells, untreated >136 bp",~60 bp
same,guanylation frequency of sRNA after treatment,"[2]; WT and P7_KO cells, untreated ∼50%",~10%
same,guanosine incorporation,"[2]; Z14_KO and PAPD5/7_DKO cells, with and without AB-452",~10%
same,EC50,[3],> 30000 nM
same,EC50,[4],> 30000 nM
same,CC50,"[5]; African green monkey, Vero cells (kidney)",> 30000 nM
same,CC50,"[5]; HEp2, human epithelial cells",> 30000 nM
same,CC50,"[5]; HeLa, human cervical cancer cells",> 30000 nM
same,CC50,"[5]; cattle (bovine), MDBK cells (kidney)",> 30000 nM
same,CC50,"[5]; hamster, BHK21 cells (kidney)",> 30000 nM
same,CC50,"[5]; human, CEM-SS cells (T lymphoblast)",> 30000 nM
same,CC50,"[5]; human, MRC5 cells (lung fibroblasts)",> 30000 nM
same,EC50,[6],> 30000 nM
same,average HBV RNA poly(A) tail length,"[7]; 4 h, untreated around 100",58 nucleotides
same,fraction of poly(A) tails containing internal G,[7]; untreated 64%,25%
same,EC50,[8],2.3 ± 0.36 nM
same,EC50,"[9]; HepG2-2.2.15, Table 2, read-out: EC50, HBV (HBsAg)",1.2 nM
same,EC50,"[9]; HepG2.2.15 cells, read-out: HBV DNA EC50",0.28 ± 0.01 nM
same,EC50,"[9]; HepG2.2.15 cells, read-out: HBeAg EC50",2.8 ± 2.1 nM
same,EC50,"[9]; HepG2.2.15 cells, read-out: HBsAg EC50",1.4 ± 0.2 nM
same,EC50,[10]; P5_KO (T3-4),37.7 ± 8.3 nM
same,EC50,[10]; P5_KO (T3-15),39.3 ± 3.2 nM
same,EC50,[10]; P7_KO (T2-8),3.8 ± 1.5 nM
same,EC50,"[10]; T222, P7_KO (T2-22)",3.2 ± 1.9 nM
same,EC50,[10]; WT (parent) HepG2-NTCP,2.7 ± 1.8 nM
same,HBV infection FC vs WT,[10]; P5_KO (T3-4),14.0
same,HBV infection FC vs WT,[10]; P5_KO (T3-15),14.6
same,HBV infection FC vs WT,[10]; P7_KO (T2-8),1.4
same,HBV infection FC vs WT,[10]; P7_KO (T2-22),1.2
same,HBV infection FC vs WT,[10]; WT (parent),1
same,EC50,"[11]; T222, read-out: Adeno infection EC50, P7_KO (T2-22), HBsAg",7.1 ± 1.3 nM
same,EC50,"[11]; read-out: Adeno infection EC50, P5_KO (T3-4), HBsAg",71.6 ± 31.2 nM
same,EC50,"[11]; read-out: Adeno infection EC50, P5_KO (T3-15), HBsAg",56 ± 34 nM
same,EC50,"[11]; read-out: Adeno infection EC50, P7_KO (T2-8), HBsAg",10 ± 1 nM
same,EC50,"[11]; read-out: Adeno infection EC50, WT (parent) HepG2-NTCP, HBsAg",9 ± 4.6 nM
same,Adeno infection FC vs WT,[11]; P5_KO (T3-4),8.0
same,Adeno infection FC vs WT,[11]; P5_KO (T3-15),6.3
same,Adeno infection FC vs WT,[11]; P7_KO (T2-8),1.1
same,Adeno infection FC vs WT,[11]; P7_KO (T2-22),0.8
same,Adeno infection FC vs WT,[11]; WT (parent),1
same,inhibition in P5/7_DKO and Z14_KO cell lines,[11]; adenovirus-transduced and HBV-infected clones (Fig. 7D to G),did not show further inhibition than the untreated controls
same,EC50,[12],> 30000 nM
same,CC50,[13],> 30000 nM
same,EC50,[14],> 30000 nM
